# Measured values published in paper PMC9583322, “Vicinal Diaryl-Substituted Isoxazole and Pyrazole Derivatives with In Vitro Growth Inhibitory and In Vivo Antitumor Activity” (ACS Omega, 2022).
# What was measured:
# Experiment in all cases: NCI-60 single-dose screen
# Format in all cases: cell-based
# A498 = settings: Homo sapiens, A498, Renal Cancer, read-out: % Growth Inhibition (GI%)
# Protocol: (§1) Moreover, in vitro single-dose anticancer screening of 11 and 85 at 10 μM was performed utilizing the stable panel of 60 cell lines comprising 9 different cancer types at the National Cancer Institute (NCI) under the Developmental Therapeutics Program (Table S1).[31]
# A549/ATCC = settings: Homo sapiens, Non-Small Cell Lung Cancer, read-out: % Growth Inhibition (GI%)
# Protocol: as §1
# ACHN = settings: Homo sapiens, Renal Cancer, read-out: % Growth Inhibition (GI%)
# Protocol: as §1
# CAKI-1 = settings: Homo sapiens, CAKI-1, Renal Cancer, read-out: % Growth Inhibition (GI%)
# Protocol: as §1
# DU-145 = settings: Homo sapiens, DU-145, Prostate Cancer, read-out: % Growth Inhibition (GI%)
# Protocol: as §1
# EKVX = settings: Homo sapiens, Non-Small Cell Lung Cancer, read-out: % Growth Inhibition (GI%)
# Protocol: as §1
# HCC-2998 = settings: Homo sapiens, HCC-2998, Colon Cancer, read-out: % Growth Inhibition (GI%)
# Protocol: as §1
# HCT-116 = settings: Homo sapiens, HCT-116, Colon Cancer, read-out: % Growth Inhibition (GI%)
# Protocol: as §1
# HCT-15 = settings: Homo sapiens, HCT-15, Colon Cancer, read-out: % Growth Inhibition (GI%)
# Protocol: as §1
# HOP-62 = settings: Homo sapiens, HOP-62, Non-Small Cell Lung Cancer, read-out: % Growth Inhibition (GI%)
# Protocol: as §1
# HOP-92 = settings: Homo sapiens, HOP-92, Non-Small Cell Lung Cancer, read-out: % Growth Inhibition (GI%)
# Protocol: as §1
# LOX-IMVI = settings: Homo sapiens, Melanoma, read-out: % Growth Inhibition (GI%)
# Protocol: as §1
# M14 = settings: Homo sapiens, M14, Melanoma, read-out: % Growth Inhibition (GI%)
# Protocol: as §1
# MDA-MB-231 = settings: Homo sapiens, MDA-MB-231, Breast Cancer, read-out: % Growth Inhibition (GI%)
# Protocol: as §1
# MDA-MB-435 = settings: Homo sapiens, MDA-MB-435, Melanoma, read-out: % Growth Inhibition (GI%)
# Protocol: as §1
# MOLT-4 = settings: Homo sapiens, MOLT-4, Leukemia, read-out: % Growth Inhibition (GI%)
# Protocol: as §1
# NCI-H23 = settings: Homo sapiens, NCI-H23, Non-Small Cell Lung Cancer, read-out: % Growth Inhibition (GI%)
# Protocol: as §1
# NCI-H322M = settings: Homo sapiens, Non-Small Cell Lung Cancer, read-out: % Growth Inhibition (GI%)
# Protocol: as §1
# NCI/ADR-RES = settings: Homo sapiens, Ovarian Cancer, read-out: % Growth Inhibition (GI%)
# Protocol: as §1
# OVCAR-3 = settings: Homo sapiens, OVCAR-3, Ovarian Cancer, read-out: % Growth Inhibition (GI%)
# Protocol: as §1
# OVCAR-4 = settings: Homo sapiens, OVCAR-4, Ovarian Cancer, read-out: % Growth Inhibition (GI%)
# Protocol: as §1
# OVCAR-5 = settings: Homo sapiens, OVCAR-5, Ovarian Cancer, read-out: % Growth Inhibition (GI%)
# Protocol: as §1
# RPMI-8226 = settings: Homo sapiens, RPMI-8226, Leukemia, read-out: % Growth Inhibition (GI%)
# Protocol: as §1
# SF-268 = settings: Homo sapiens, SF-268, CNS Cancer, read-out: % Growth Inhibition (GI%)
# Protocol: as §1
# SF-295 = settings: Homo sapiens, SF-295, CNS Cancer, read-out: % Growth Inhibition (GI%)
# Protocol: as §1
# SF-539 = settings: Homo sapiens, SF-539, CNS Cancer, read-out: % Growth Inhibition (GI%)
# Protocol: as §1
# SK-MEL-2 = settings: Homo sapiens, SK-MEL-2, Melanoma, read-out: % Growth Inhibition (GI%)
# Protocol: as §1
# SK-MEL-5 = settings: Homo sapiens, SK-MEL-5, Melanoma, read-out: % Growth Inhibition (GI%)
# Protocol: as §1
# SK-OV-3 = settings: Homo sapiens, SK-OV-3, Ovarian Cancer, read-out: % Growth Inhibition (GI%)
# Protocol: as §1
# SN12C = settings: Homo sapiens, Renal Cancer, read-out: % Growth Inhibition (GI%)
# Protocol: as §1
# SR = settings: Homo sapiens, Leukemia, read-out: % Growth Inhibition (GI%)
# Protocol: as §1
# SW-620 = settings: Homo sapiens, SW-620, Colon Cancer, read-out: % Growth Inhibition (GI%)
# Protocol: as §1
# TK-10 = settings: Homo sapiens, TK-10, Renal Cancer, read-out: % Growth Inhibition (GI%)
# Protocol: as §1
# UACC-257 = settings: Homo sapiens, UACC-257, Melanoma, read-out: % Growth Inhibition (GI%)
# Protocol: as §1
# UACC-62 = settings: Homo sapiens, UACC-62, Melanoma, read-out: % Growth Inhibition (GI%)
# Protocol: as §1
# UO-31 = settings: Homo sapiens, UO-31, Renal Cancer, read-out: % Growth Inhibition (GI%)
# Protocol: as §1
compound,measurement,setting,value
"Cc1ccccc1COc1ccc(-c2noc(C)c2-c2ccc(Cl)cc2)cc1 [compound 11, 4-(4-Chlorophenyl)-5-methyl-3-(4-((2-methylbenzyl)oxy)phenyl)isoxazole]",inhibition at 10 µM,A498,61.4%
same,inhibition at 10 µM,A549/ATCC,50.7%
same,inhibition at 10 µM,ACHN,33%
same,inhibition at 10 µM,CAKI-1,51.3%
same,inhibition at 10 µM,DU-145,22.6%
same,inhibition at 10 µM,EKVX,24.9%
same,inhibition at 10 µM,HCC-2998,13.4%
same,inhibition at 10 µM,HCT-116,66%
same,inhibition at 10 µM,HCT-15,62.5%
same,inhibition at 10 µM,HOP-62,48.4%
same,inhibition at 10 µM,HOP-92,27.4%
same,inhibition at 10 µM,LOX-IMVI,32%
same,inhibition at 10 µM,M14,67.8%
same,inhibition at 10 µM,MDA-MB-231,79.2%
same,inhibition at 10 µM,MDA-MB-435,100%
same,inhibition at 10 µM,MOLT-4,67.2%
same,inhibition at 10 µM,NCI-H23,26.2%
same,inhibition at 10 µM,NCI-H322M,2.44%
same,inhibition at 10 µM,NCI/ADR-RES,60.8%
same,inhibition at 10 µM,OVCAR-3,79.3%
same,inhibition at 10 µM,OVCAR-4,17.3%
same,inhibition at 10 µM,OVCAR-5,12.4%
same,inhibition at 10 µM,RPMI-8226,19%
same,inhibition at 10 µM,SF-268,24.4%
same,inhibition at 10 µM,SF-295,50.6%
same,inhibition at 10 µM,SF-539,36.5%
same,inhibition at 10 µM,SK-MEL-2,62.9%
same,inhibition at 10 µM,SK-MEL-5,26.6%
same,inhibition at 10 µM,SK-OV-3,40.5%
same,inhibition at 10 µM,SN12C,31.7%
same,inhibition at 10 µM,SR,66%
same,inhibition at 10 µM,SW-620,68.3%
same,inhibition at 10 µM,TK-10,15.7%
same,inhibition at 10 µM,UACC-257,29.1%
same,inhibition at 10 µM,UACC-62,51.5%
same,inhibition at 10 µM,UO-31,25.6%
"Cc1ccccc1COc1ccc(-c2ccnn2-c2ccc(Cl)cc2)cc1 [compound 85, 1-(4-Chlorophenyl)-5-(4-((2-methylbenzyl)oxy)phenyl)-1H-pyrazole]",inhibition at 10 µM,A498,42.5%
same,inhibition at 10 µM,A549/ATCC,50.5%
same,inhibition at 10 µM,ACHN,22.4%
same,inhibition at 10 µM,CAKI-1,40.3%
same,inhibition at 10 µM,DU-145,11.9%
same,inhibition at 10 µM,EKVX,22.9%
same,inhibition at 10 µM,HCC-2998,10.9%
same,inhibition at 10 µM,HCT-116,61.9%
same,inhibition at 10 µM,HCT-15,60.1%
same,inhibition at 10 µM,HOP-62,50.7%
same,inhibition at 10 µM,HOP-92,25.8%
same,inhibition at 10 µM,LOX-IMVI,35.7%
same,inhibition at 10 µM,M14,61%
same,inhibition at 10 µM,MDA-MB-231,75.8%
same,inhibition at 10 µM,MDA-MB-435,99.2%
same,inhibition at 10 µM,MOLT-4,73.7%
same,inhibition at 10 µM,NCI-H23,23.4%
same,inhibition at 10 µM,NCI-H322M,3.12%
same,inhibition at 10 µM,NCI/ADR-RES,62%
same,inhibition at 10 µM,OVCAR-3,73.4%
same,inhibition at 10 µM,OVCAR-4,14.3%
same,inhibition at 10 µM,OVCAR-5,8.29%
same,inhibition at 10 µM,RPMI-8226,22.6%
same,inhibition at 10 µM,SF-268,19.5%
same,inhibition at 10 µM,SF-295,46.9%
same,inhibition at 10 µM,SF-539,28.2%
same,inhibition at 10 µM,SK-MEL-2,60.8%
same,inhibition at 10 µM,SK-MEL-5,33.4%
same,inhibition at 10 µM,SK-OV-3,36.3%
same,inhibition at 10 µM,SN12C,32.4%
same,inhibition at 10 µM,SR,66.2%
same,inhibition at 10 µM,SW-620,70.3%
same,inhibition at 10 µM,TK-10,16.2%
same,inhibition at 10 µM,UACC-257,24.3%
same,inhibition at 10 µM,UACC-62,39.3%
same,inhibition at 10 µM,UO-31,25.6%
